Earlier results in US20170020130A1, “METHOD OF PREPARATION AND COMPOSITION OF ANT[…]” (Eltron Research & Development, LLC, priority 2008, published 2017).

Settings: alkaline pH (7.5≦pH≦10.5), near the pKa

Compound: CC(=O)OO [peracetic acid]
- stability (decomposition with evolution of oxygen): least stable
